Results: ChEMBL document CHEMBL1128212, “Synthesis and biological evaluation of substituted flavones as gastroprotective agents” (1995)

Legend:
[1] = test system: Rattus norvegicus; assay: Percent protection from gastric damage in rats relative to vehicle control following intraperitoneal administration of 20 mg/Kg; type: functional, Stomach
[2] = species: Rattus norvegicus; assay: The dose required to produce a 50% gastroprotection level relative to control; type: functional
[3] = test system: Rattus norvegicus; assay: Compound was evaluated for its effect on rat liver microsomal EROD(7-ethoxyresorufin O-dealkylase) by the change in its concentration at a dose of 250 mg/kg; type: functional, organism-based; design: dose 250 mg/kg
[4] = test system: Rattus norvegicus; assay: Compound was evaluated for its effect on rat liver microsomal NADPH-[…] c reductase by the change in its concentration at a dose of 250 mg/kg; type: functional, organism-based; design: dose 250 mg/kg
[5] = test system: Rattus norvegicus; assay: Compound was evaluated for its effect on rat liver microsomal cytochrome b5 by the change in its concentration at a dose of 250 mg/kg; type: functional, organism-based; design: dose 250 mg/kg
[6] = test system: Rattus norvegicus; assay: Compound was evaluated for its effect on rat liver microsomal cytochrome P450 by the change in its concentration at a dose of 250 mg/kg; type: functional, organism-based; design: dose 250 mg/kg
[7] = test system: Rattus norvegicus; assay: Compound was evaluated for its effect on rat liver microsomal cytochrome b5 by the change in its concentration at a dose of 268 mg/kg; type: functional, organism-based; design: dose 268 mg/kg
[8] = test system: Rattus norvegicus; assay: Compound was evaluated for its effect on rat liver microsomal cytochrome P450 by the change in its concentration at a dose of 268 mg/kg; type: functional, organism-based; design: dose 268 mg/kg
[9] = test system: Rattus norvegicus; assay: Compound was evaluated for its effect on rat liver microsomal NADPH-[…] c reductase by the change in its concentration at a dose of 268 mg/kg; type: functional, organism-based; design: dose 268 mg/kg
[10] = test system: Rattus norvegicus; assay: Compound was evaluated for its effect on rat liver microsomal EROD(7-ethoxyresorufin O-dealkylase) by the change in its concentration at a dose of 268 mg/kg; type: functional, organism-based; design: dose 268 mg/kg
[11] = test system: Rattus norvegicus; assay: Gastroprotection percentage taken from rat indomethacin damage model at a dose 30 mg/kg administered orally; type: functional; conditions: route oral
[12] = test system: Rattus norvegicus; assay: Gastroprotection percentage taken from rat indomethacin damage model at a dose 0.25 mg/kg administered orally; type: functional; conditions: route oral
[13] = test system: Rattus norvegicus; assay: Compound was evaluated for its effect on rat liver microsomal cytochrome P450 by the change in its concentration at a dose of 100 mg/kg; type: functional, organism-based; design: dose 100 mg/kg
[14] = test system: Rattus norvegicus; assay: Compound was evaluated for its effect on rat liver microsomal EROD(7-ethoxyresorufin O-dealkylase) by the change in its concentration at a dose of 100 mg/kg; type: functional, organism-based; design: dose 100 mg/kg
[15] = test system: Rattus norvegicus; assay: Compound was evaluated for its effect on rat liver microsomal cytochrome b5 by the change in its concentration at a dose of 100 mg/kg; type: functional, organism-based; design: dose 100 mg/kg
[16] = test system: Rattus norvegicus; assay: Compound was evaluated for its effect on rat liver microsomal NADPH-[…] c reductase by the change in its concentration at a dose of 100 mg/kg; type: functional, organism-based; design: dose 100 mg/kg

| Structure (SMILES) | Protection [1] | further results |
| --- | --- | --- |
| O=c1c(O)c(-c2ccccc2)oc2ccccc12 [FLAVONOL] | 47% |  |
| COc1ccc2oc(-c3ccccc3)cc(=O)c2c1 [6-METHOXYFLAVONE] | 29% |  |
| O=c1cc(-c2cccc(O)c2)oc2ccccc12 | 71% |  |
| CN/C(=N\CCSCc1nc[nH]c1C)NC#N [CIMETIDINE] | 14% |  |
| CCOc1cccc2oc(-c3ccccc3)cc(=O)c12 | 36% |  |
| COc1ccc2c(=O)cc(-c3cccc(C(F)(F)F)c3)oc2c1 | 67% |  |
| COc1ccc(-c2cc(=O)c3ccccc3o2)cc1 [4'-METHOXYFLAVONE] | 21% |  |
| O=c1cc(-c2ccccc2)oc2cc(O)ccc12 [7-HYDROXYFLAVONE] | 75% |  |
| COc1cccc2oc(-c3ccccc3)cc(=O)c12 | 97% | ED50 [2]: 2.6 mg/kg |
| COc1ccc2c(=O)cc(-c3ccc(F)cc3)oc2c1 | 67% | ED50 [2]: 8.9 mg/kg |
| Cc1ccccc1-c1cc(=O)c2ccccc2o1 | 92% |  |
| COc1cccc2oc(-c3cccc(C(F)(F)F)c3)cc(=O)c12 | 90% | ED50 [2]: 3.3 mg/kg |
| COc1cccc2oc(-c3ccc(C(F)(F)F)cc3)cc(=O)c12 | 65% |  |
| COc1c(-c2ccccc2)oc2ccccc2c1=O | 41% |  |
| COc1cccc2oc(-c3ccccc3Cl)cc(=O)c12 | 89% |  |
| COc1cccc2oc(-c3ccc([N+](=O)[O-])cc3)cc(=O)c12 | 52% |  |
| Cc1cccc2oc(-c3ccccc3)cc(=O)c12 | 52% |  |
| COc1ccc(-c2cc(=O)c3c(OC)cccc3o2)cc1 | 33% |  |
| COc1cccc2oc(-c3ccc(C)cc3)cc(=O)c12 | 93% |  |
| Cc1ccc(-c2cc(=O)c3ccccc3o2)cc1 | 68% |  |

| Structure (SMILES) | Protection [1] | further results |
| --- | --- | --- |
| COc1cccc2oc(-c3ccc(Cl)cc3)cc(=O)c12 | 94% |  |
| COc1ccc2c(=O)cc(-c3ccccc3)oc2c1 [7-METHOXYFLAVONE] | 89% | ED50 [2]: 5.9 mg/kg; Concentration (nM min-1 (mg of protein)-1) [3]: 442; Concentration (nM min-1 (mg of protein)-1) [4]: 339; Concentration (nM min-1 (mg of protein)-1) [5]: 0.73; Concentration (nM min-1 (mg of protein)-1) [6]: 1.42 |
| Cc1ccc2c(=O)cc(-c3ccccc3)oc2c1 [7-METHYLFLAVONE] | 90% | ED50 [2]: 5.6 mg/kg |
| COc1cccc2c(=O)cc(-c3ccccc3)oc12 [8-METHOXYFLAVONE] | 53% |  |
| COc1cccc2oc(-c3ccc(F)cc3)cc(=O)c12 | 97% | ED50 [2]: 5.5 mg/kg; Concentration (nM min-1 (mg of protein)-1) [7]: 0.65; Concentration (nM min-1 (mg of protein)-1) [8]: 1.17; Concentration (nM min-1 (mg of protein)-1) [9]: 275; Concentration (nM min-1 (mg of protein)-1) [10]: 1110; Protection [11]: 76% |
| O=c1cc(-c2ccccc2)oc2ccccc12 [FLAVONE] | 93% | ED50 [2]: 6.9 mg/kg |
| CCOc1ccc2c(=O)cc(-c3ccccc3)oc2c1 | 87% |  |
| O=c1cc(-c2ccccc2O)oc2ccccc12 | 78% | ED50 [2]: 15.6 mg/kg |
| O=c1cc(-c2ccccc2)oc2c(O)cccc12 | 46% |  |
| O=c1cc(-c2ccccc2)oc2cccc(O)c12 [5-HYDROXYFLAVONE] | 58% |  |
| O=c1cc(-c2ccccc2)oc2ccc(O)cc12 [6-HYDROXYFLAVONE] | 57% |  |
| O=c1cc(-c2ccc(O)cc2)oc2ccccc12 | 63% |  |
| CCCCC[C@H](O)/C=C/[C@H]1[C@H](O)CC(=O)[C@@H]1C/C=C\CCCC(=O)O [DINOPROSTONE] | 82% | Protection [12]: 61% |
| CCCCOc1cccc2oc(-c3ccccc3)cc(=O)c12 | 75% |  |
| COc1cccc(-c2cc(=O)c3ccccc3o2)c1 | 48% |  |
| COc1ccc2c(=O)cc(-c3ccccc3Cl)oc2c1 | 80% |  |
| COc1ccccc1-c1cc(=O)c2ccccc2o1 | 66% | ED50 [2]: 22.4 mg/kg |
| C=CCOc1cccc2oc(-c3ccccc3)cc(=O)c12 | 57% |  |
| O=c1cc(-c2ccccc2)oc2ccc3ccccc3c12 |  | Concentration (nM min-1 (mg of protein)-1) [13]: 2.02; Concentration (nM min-1 (mg of protein)-1) [14]: 5010; Concentration (nM min-1 (mg of protein)-1) [15]: 0.79; Concentration (nM min-1 (mg of protein)-1) [16]: 166 |
